From patent publication US20250288645A1, “USE OF GsMTx4 AND GsMTx4 CONJUGATES TO IMPROVE RECOVERY FROM JOINT INJURY” (priority 2023, published 2025)
“Also recorded” adds a separate entry of the source. No end group written: not given here.

Assays:
CGRP^+ pain nerves = test: Bilateral ACL-injury mouse model: knee nerve innervation and CGRP+ pain nerves; type: in vivo
From the text: Some of the studies reported below involved a murine model of animals which were subjected to trauma by injuring an ACL (as an exemplar of injury to any of the four knee ligaments). Without wishing to be bound by theory, it is believed that injury to the ACL changes the mechanical loading on the joint, promoting imbalanced metabolism in articular cartilage, and promoting the development of post-traumatic OA, or “PTOA.” Animals were divided into four cohorts: the first group, the controls, were not subjected to trauma, the second group underwent bilateral ACL injury, but no further treatment, the third group underwent bilateral ACL injury, and was then administered saline solution at days 3, 10 and 17 post-injury, and the fourth group underwent bilateral ACL injury, and was then administered GsMTx4 peptide at days 3, 10 and 17 post-injury. The animals were evaluated by gait analysis, a cell vulnerability assay, and a histological evaluation/immunofluorescence assay. In one aspect, the assays compared the expression of Piezo1 and Piezo2 in chondrocytes from injured joints, from uninjured controls, and from injured joints injured and then treated with GsMTx4 and from joints that were injured and then treated only with saline solution. The study also looked at calcitonin gene-related peptide (“CGRP”)-containing (“CGRP^+”) nerve endings. CGRP^+ nerves have been identified as principal coordinators of thermal and mechanical sensitivity in various pain models. See, e.g., Powell, et al., Nat Commun 12, 5812 (2021); doi.org/10.1038/s41467-021-26100-6.

Piezo1 [1] = test: Massive rotator cuff tear mouse model: Piezo1 immunohistochemistry; type: in vivo
Method: A massive rotator cuff tear (RCT) model was performed by surgical ligation of the supraspinatus and infraspinatus tendons of the right shoulder of 14-week-old C57Bl/6 male and female mice through a deltoid splitting approach. Mice were anesthetized with 2% isoflurane gas mixed with oxygen. A single dose of buprenorphine SR (0.5 mg/kg) was injected subcutaneously at the nape. The right shoulder was prepped using a chemical hair removal agent, followed by betadine solution for 2 minutes and a rinse with 70% ethanol. The remaining steps were performed under sterile technique. A #11 scalpel blade was used to sharply incise the skin and subcutaneous tissues in a longitudinal incision over the palpable border of the lateral shoulder. The deltoid fascia and muscle were sharply incised in line with the skin incision with care not to dissect distally along the humerus to protect the axillary nerve. […] Animals were monitored daily for 3 days post-operatively, and no adverse events were noted. […]
For Piezo1 immunohistochemistry, deparaffinized and rehydrated slides were incubated in citrate buffer (10 mM sodium citrate, 0.05% Tween-20, pH 6.0) for […] at 75° C. […] Chondrocyte Piezo1 protein expression was quantified by average threshold intensity of immunofluorescence by ImageJ analysis through raw intensity averaging. […]

Piezo1 [2] = test: Bilateral ACL-injury mouse model: Piezo1 labeling (immunofluorescence); type: in vivo; conditions: ACL-I mice, 3 weeks post-ACL-I, versus saline-treated ACL-I mice
From the text: Some of the studies reported below involved a murine model of animals which were subjected to trauma by injuring an ACL (as an exemplar of injury to any of the four knee ligaments). Without wishing to be bound by theory, it is believed that injury to the ACL changes the mechanical loading on the joint, promoting imbalanced metabolism in articular cartilage, and promoting the development of post-traumatic OA, or “PTOA.” Animals were divided into four cohorts: the first group, the controls, were not subjected to trauma, the second group underwent bilateral ACL injury, but no further treatment, the third group underwent bilateral ACL injury, and was then administered saline solution at days 3, 10 and 17 post-injury, and the fourth group underwent bilateral ACL injury, and was then administered GsMTx4 peptide at days 3, 10 and 17 post-injury. The animals were evaluated by gait analysis, a cell vulnerability assay, and a histological evaluation/immunofluorescence assay. In one aspect, the assays compared the expression of Piezo1 and Piezo2 in chondrocytes from injured joints, from uninjured controls, and from injured joints injured and then treated with GsMTx4 and from joints that were injured and then treated only with saline solution. The study also looked at calcitonin gene-related peptide (“CGRP”)-containing (“CGRP^+”) nerve endings. […]

chondrocytes = test: Mechano-vulnerability (impact loading) assay on cartilage of treated ACL-injured mice; type: in vivo, mouse; conditions: ACL-I mice, 3 weeks post-ACL-I, versus saline-treated ACL-I mice
From the text: OA was induced by a bilateral anterior cruciate ligament-injury (ACL-I) in 8-week-old C57BL/6 mice. Piezo1-labeling intensity in articular chondrocytes and nerves in subchondral bone, the OA severity (OARSI score), the mechano-vulnerability of chondrocytes, and gait parameters was compared among four experimental groups-Control (uninjured), ACL-injured, ACL-injured with saline administration, and ACL-injured with GsMT4 treatment—at 3-weeks post-ACL-I.
FIG. 1E is a diagram showing impact loading applied to cartilage over a portion of a mouse bone as part of an assay for studying the resulting area of chondrocyte death, sometimes referred to a “mechano-death” or “mechano-vulnerability” assay. See, Kotelsky, et al., Osteoarthritis and Cartilage Open, 4 (1): 100227 (2022); doi.org/10.1016/j.ocarto. 2021.100227.
FIG. 2C presents two sets of two photos from animals that have undergone bilateral ACL injury. The animal in the photos in the top row was injected after the injury with saline solution (“ACLL+saline”), while the animal in the bottom row was injected at the same time points post-injury with GsMTx4 (“ACLI+GsMTx4”). The left photos show the amount of dead cells (in red, in the color original, compared to living cells, which have taken up a green label) and after application of a 1 mJ force. FIG. 2D presents a graph showing the results of the studies.

mice = test: Gait analysis after bilateral ACL injury; type: in vivo, mouse; conditions: weekly subcutaneous injections, after 3 weeks
Method: This Example discusses studies in which mice were first divided into three groups: Group 1, control animals, were not injured, but were injected with GsMTx4, Group 2 mice were given a bilateral ACL injury in their hind legs, and then given weekly subcutaneous injections of saline, and (3) Group 3 mice were given a bilateral ACL injury in their hind legs, and then given weekly subcutaneous injections of GsMTx4.
After 3 weeks, the gait of the animals in each group was studied for the following metrics: hind paw stride length, hind paw average speed, hind paw swing speed, and step cycle.

[3] = ACL-I mice, GsMTx4 post-injury, versus saline-treated ACL-I mice

Substance: GsMTx4 (GCLEFWWKCNPNDDKCCRPKLKCSKLFKLCNFSF-NH2; ends and bridges not checked; listed as Grammostola spatulata)
- CGRP^+ pain nerves / CGRP level in injured knee (CGRP^+ pain nerves; [3]): decreased CGRP^+ pain nerves; also recorded: lower levels of CGRP present
- nerve innervation in the knee (CGRP^+ pain nerves; [3]): decreased nerve innervation in the knee
- pain nerves in the meniscus of the injured joints (CGRP^+ pain nerves; bilateral ACL injury, versus no treatment or saline): reduced the increase of pain nerves in the meniscus
- humeral head chondrocyte Piezo1 protein expression versus contralateral control joint (Piezo1 [1]; RC ligation, subcutaneous twice weekly, 14 weeks post-operatively, p<0.05): significantly lower humeral head chondrocyte Piezo1 protein expression
- Piezo1 expression in cells from RCT shoulders versus animals not treated with GsMTx4 (Piezo1 [1]; RCT, treated post-injury with GsMTx4): reduced expressed of Piezo1
- Piezo1-labeling in chondrocytes and nerves in subchondral bones (Piezo1 [2]): reduced Piezo1-labeling in chondrocytes and nerves in subchondral bones
- area of chondrocyte death by mechanical impact (chondrocytes): decreased area of chondrocyte death by impact; also recorded: decreased impact-induced mechanical-susceptibility
- gait (hind paw stride length, hind paw average speed, hind paw swing speed, step cycle; FIG. 3) (mice): the same or almost the same as that of mice that had not had an ACL injured
